The structures appear in SMILES notation.

Here are results for one compound from patent US20130045952A1, “ABA Receptor Agonists for Increased Plant Stress Resistance” (Van Andel Research Institute, priority 2011, published 2013).

Assay [1] deals with T1, PYL6 / PP2Cs (HAB1, ABI1, ABI2) (Arabidopsis thaliana, UniProt Q8S8E3).
T1 construct: made in house; host or cells: not expressly stated for PYL6
T1 sequence (Q8S8E3 1-215): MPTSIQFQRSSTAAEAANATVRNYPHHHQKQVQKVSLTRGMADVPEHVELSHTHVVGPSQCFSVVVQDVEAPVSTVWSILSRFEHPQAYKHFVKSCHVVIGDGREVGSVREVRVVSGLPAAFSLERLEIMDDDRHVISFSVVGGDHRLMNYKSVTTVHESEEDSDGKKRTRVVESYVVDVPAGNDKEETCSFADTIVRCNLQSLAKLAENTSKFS
The experiment in a line: In vitro PYL6-PP2C interaction. Type of assay: biochemical. To be noted: purified proteins in vitro. On the procedure:
(§1) To determine the biochemical basis of these observations, we used purified proteins of PYR1 and PYL1 to PYL6 to measure their interactions with three PP2Cs, HAB1, ABI1, and ABI2, in vitro. […] In phosphatase assays, pyrabactin promoted PYR1, PYL1, PYL3, PYL5, and PYL6, but not PYL2 and PYL4, to inhibit all three PP2Cs.
(§2) Mutant proteins were expressed as H6GST-fusion proteins and purified by glutathione sepharose chromatography. Protein-protein interactions were determined by luminescence proximity AlphaScreen assay. Biotinylated PP2C proteins for the luminescence proximity assay were generated by in vivo biotinylation of avitag-PP2C fusion proteins. PP2C phosphatase activity was measured by phosphate release from a SnRK2.6 phosphoprotein.
Interactions between PYR/PYL and PP2Cs were assessed by luminescence-proximity AlphaScreen technology (Perkin Elmer). Briefly, biotinylated PP2Cs were attached to streptavidin-coated donor beads, and H6-tagged PYR/PYL receptors were attached to nickel-chelated acceptor beads. The donor and acceptor beads were brought into proximity by the interactions between PYR/PYLs and PP2Cs, which were measured with and without ligands. When excited by a laser beam of 680 nm, the donor beam emits singlet oxygen that activates thioxene derivatives in the acceptor beads, which releases photons of 520-620 nm as the binding signal. […]

Assay [2] addresses T2, PYL2 A93F (Arabidopsis thaliana, UniProt O80992, A93F).
T2 construct: PYL2 (residues 14-188), and HAB1 (residues 172-511) were prepared as recombinant proteins in E. coli; made in house; host or cells: E. coli (stated for PYL2 in general)
The experiment in a line: PP2C binding and phosphatase assays of mutant PYL2 A93F. Type of assay: biochemical.
From the text: The closest distance between the pyridine ring of pyrabactin and the LPA gating residues is 4.8 Å-7.0 Å when the LPA loop assumes the ABA-bound closed conformation, but is 11-13 Å when the LPA gate is in open conformation. In contrast, the distance of the naphthalene double ring of pyrabactin or the cyclohexene ring of ABA to the three side chains of the LPA gate in the PYL1 structure is 3.4-4.6 Å, a range for strong Van der Waals interactions, thus helping to keep the LPA gate in the closed conformation. […] To validate this hypothesis, we changed the alanine in the LPA loop to a larger residue. […] As expected from structural modeling, replacement of the gate residue A93 with the bulky phenylalanine ring also abrogated ABA to promote PYL2 activation.
as §2
Site-directed mutagenesis was carried out using the QuickChange method (Stratagene). Mutations and all plasmid constructs were confirmed by sequencing.

Assay [3] relates to RD29B promoter-LUC reporter. Description: Protoplast transient assay, reconstituted ABA signaling pathway, RD29B-LUC reporter. Type of assay: cell-based, Arabidopsis thaliana. To be noted: Arabidopsis protoplasts. Here is the method:
The ABA signal transduction pathway was reconstituted in protoplasts by transient transfection of PYR/PYL receptor, ABI1, SnRK2.6, and ABF2 expression plasmids. Activation of an ABA-inducible RD29B promoter-LUC reporter was determined by luciferase assays normalized for β-glucuronidase activity from a UQ10-GUS reporter.
An ABA-inducible luciferase reporter was constructed by replacing the CBF3 promoter in the CBF3-LUC construct with the promoter region of RD29B, a highly ABA-inducible gene^2. CBF3-LUC, UQ10-GUS and ABI1 protoplast expression plasmid vectors were kindly provided by Jen Sheen (Massachusetts General Hospital, Boston, Mass. 02114).
Protoplasts were isolated from Arabidopsis thaliana ecotype Columbia-0 plants, which were grown on Jiffy7 soil (Jiffy Products Ltd., Canada) in an environment-controlled chamber at 22° C. with a photosynthetically active radiation of 75 μmol m^−2 s^−1 and a day/night cycle of 13 hours light/11 dark. Transient activity assays were performed in Arabidopsis mesophyll protoplasts from Columbia-0 wild-type plants as described by the Sheen laboratory^33. Transfected protoplasts were incubated for 5 hours in light in the presence of 0 or 5 μM (+) ABA and the indicated concentrations of pyrabactin, and then used for measuring LUC and GUS activity. […]

Assay [4] relates to PP2Cs HAB1, ABI1, and ABI2. Description: Phosphatase assays, PYR/PYL receptor-dependent inhibition of PP2Cs. Type of assay: biochemical. Here is the method: as §1, §2
PP2Cs and PYR/PYL proteins were pre-incubated at the indicated concentrations in 50 mM imidazole, pH 7.2, 5 mM MgCl2, 0.1% β-mercaptoethanol and 0.5 mg/ml BSA for 30 min at room temperature. Reactions were started by addition of 100 μM of a phosphopeptide corresponding to amino acids 170-180 of SnRK2.6 (HSQPK^pSTVGTP). This peptide is phosphorylated at a single residue corresponding to Ser175 in SnRK2.6, whose phosphorylation is required for SnRK2.6 kinase activity^32. Phosphate release from ^pS175 from the phosphopeptide was determined by colorimetric assay (BioVision).

Assay [5] concerns HAB1 PP2C / PYR/PYL receptors. To be noted: yeast two-hybrid; cited from earlier work.

T2 sequence (O80992 14-188 A93F): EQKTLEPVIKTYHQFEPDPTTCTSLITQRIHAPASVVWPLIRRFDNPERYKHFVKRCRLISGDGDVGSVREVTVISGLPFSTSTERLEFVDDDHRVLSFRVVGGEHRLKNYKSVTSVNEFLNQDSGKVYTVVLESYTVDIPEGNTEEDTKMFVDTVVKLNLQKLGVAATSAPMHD

With `O=S(=O)(NCc1ccccn1)c1ccc(Br)c2ccccc12` [Pyrabactin, pyrabactin], the “Promotion of PYL6 interaction with the three PP2Cs” value in assay [1] is reported as “promoted interaction”. Further, the “Activation of mutant PYL2 A93F receptor” value in assay [2] is “pyrabactin-activated receptor”. The “PYL2 and ABA-dependent induction of the ABA-inducible reporter” value in assay [3] (receptor PYL2, with ABA) was “inhibited”. Further, the “PYR1-dependent induction of the ABA-inducible reporter RD29B-LUG” value in assay [3] (receptor PYR1, concentration-dependent) was “promoted”. In addition, the “Effect on ABA-dependent inhibition of PP2Cs by PYL2” value in assay [4] (high concentrations of pyrabactin, in the presence of ABA) is “reversed”. For the same compound, the “Promotion of PYL1 to inhibit all three PP2Cs” value in assay [4] (phosphatase assays, receptor PYL1) is “promoted”. For the same compound, in assay [4] (phosphatase assays, receptor PYL2), the “Promotion of PYL2 to inhibit all three PP2Cs” value was “not and did not promote”. In addition, in assay [4] (phosphatase assays, receptor PYL3), the “Promotion of PYL3 to inhibit all three PP2Cs” value is reported as “promoted”. In assay [4] (phosphatase assays, receptor PYL4), the “Promotion of PYL4 to inhibit all three PP2Cs” value is recorded as “not”. The “Promotion of PYL5 to inhibit all three PP2Cs” value in assay [4] (phosphatase assays, receptor PYL5) was “promoted”. The “Promotion of PYL6 to inhibit all three PP2Cs” value in assay [4] (phosphatase assays, receptor PYL6) is “promoted”. The “Promotion of PYR1 to inhibit all three PP2Cs” value in assay [4] (phosphatase assays, receptor PYR1) is reported as “promoted”. Further, in assay [5], the “Interaction of the HAB1 PP2C with PYL1” value is “promoted”, the “Interaction of the HAB1 PP2C with PYL2” value is on record as “not”, the “Interaction of the HAB1 PP2C with PYL3” value was “promoted” and the “Interaction of the HAB1 PP2C with PYL4” value is “not”. The “Interaction of the HAB1 PP2C with PYR1” value in assay [5] is reported as “promoted”.
